Test results published in publication PMC12281485, “High-Throughput Screening of Potent Drug-like Molecules Targeting 17β-HSD10 for the Treatment of Alzheimer’s Disease and Cancer” (ACS Chemical Biology, 2025).
Like-named read-outs stand apart in the source and are kept apart here.

How the values were obtained:
17β-HSD10 [1] = molecular target: T1, 17β-HSD10 (Homo sapiens, UniProt Q99714); test: (−)-CHANA fluorescence assay of cellular 17β-HSD10 activity; assay type: cell-based; conditions: read-out: cellular 17β-HSD10 activity mean pEC50 (converted)
T1 construct: Recombinant 17β-HSD10 was expressed and purified as previously described in Aitken et al; made in house
T1 sequence (Q99714 1-261): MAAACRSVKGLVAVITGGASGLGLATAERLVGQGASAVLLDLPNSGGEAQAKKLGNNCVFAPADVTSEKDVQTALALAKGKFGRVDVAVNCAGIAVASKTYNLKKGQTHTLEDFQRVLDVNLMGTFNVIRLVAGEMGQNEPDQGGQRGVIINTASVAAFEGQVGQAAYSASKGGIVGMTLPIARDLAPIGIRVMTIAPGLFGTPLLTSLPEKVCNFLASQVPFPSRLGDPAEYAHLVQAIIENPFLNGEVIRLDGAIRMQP
Method: (−)–CHANA ((−)-cyclohexenyl amino naphthalene alcohol) is a fluorogenic probe that can be used to detect 17β-HSD10 activity in living cells. HEK293 17β-HSD10 cells were seeded at a density of 10,000 cells per well (100 μL, 96-well black plates) in phenol-red free media (10% FBS, 1 mM sodium pyruvate, 100 units penicillin, 0.1 mg mL^–1 streptomycin, and 2 mM L-glutamine). […] The fluorogenic probe (−)–CHANA was then added to each well to give a final assay concentration of 20 μM. Fluorescence was immediately measured using the FLUOstar Optima microplate reader (excitation = 380 nm, emission = 520 nm, orbital averaging = 3 mm), and the initial reaction was monitored for 3–4 h. EC50 was calculated from the control-subtracted triplicates using nonlinear regression (four parameters) of GraphPad Prism 5 software. The Final EC50 and SEM values were obtained as a mean of at least three independent measurements.

[2] = Alamar Blue cell viability assay; assay type: cell-based, human; conditions: human, HEK293 cells overexpressing 17β-HSD10, 50 μM compound, n = 3 ± SD, read-out: Alamar Blue % viability (50 μM dose)
Method: (§1) Cell viability was assessed via fluorescence change using the commercially available Alamar Blue from ThermoFisher. HEK293 cells overexpressing 17β-HSD10 were cultured in phenol-red free media (10% FBS, 1 mM sodium pyruvate, 100 units penicillin, 0.1 mg mL^–1 streptomycin, and 2 mM L-glutamine) and seeded at a density of 10,000 cells per well (100 μL, 96-well plates). […] Treated cells were then incubated at 37 °C and CO2 (5%) for 24 h before the assay was performed as per the manufacturer’s instructions. Fluorescence was measured at 530 nm excitation and 590 nm emission using the SpectraMaxM2e spectrophotometer.

17β-HSD10 [3] = molecular target: T1, 17β-HSD10; test: 17β-HSD10 enzyme inhibition dose-response assay (acetoacetyl-CoA/NADH, absorbance 340 nm); assay type: biochemical
Method: Recombinant 17β-HSD10 was expressed and purified as previously described in Aitken et al.
17β-HSD10 screening was carried out as described in Aitken et al. with the exception that experiments were also conducted in clear-bottom 1536-well low-volume microplates (Corning) with a final assay volume of 20 μL. For primary screening, an endpoint assay format was adopted, in which an Echo acoustic liquid dispenser (Labcyte) was used to transfer 20 nL of either DMSO control […] or test compounds (10 μM) to the assay plate. 10 μL of the 17β-HSD10 enzyme in an assay buffer (2.5 nM) was then added to the plates using the Preddator liquid handling robot (Redd and Whyte), and plates were incubated at RT for 15 min. 10 μL of the substrate mixture (100 μM acetoacetyl-CoA and 100 μM NADH) was added with the Preddator. To start the reaction, the plates were left to incubate for 35 min at RT before the absorbance at 340 nm was read on the EnVision plate reader (PerkinElmer). For the kinetic assay format and dose-response follow-up experiments, the same protocol was adopted, except that the absorbance at 340 nm was monitored constantly for 45 min from immediately after the reaction was started.

[4] = test system: HEK293 cells overexpressing 17β-HSD10; test: LDH cytotoxicity assay; assay type: cell-based, human; conditions: 50 μM compound, 24 h, n = 3 ± SD
Method: Cell cytotoxicity was assessed via the measurement of LDH leakage into the culture medium using a commercially available kit from Pierce (Thermo Scientific cat no. 88953). This was carried out in accordance with the kit guidelines, with the activity of LDH being calculated from the change in absorbance at […]. Human embryonic kidney (HEK293) cells overexpressing 17β-HSD10 were cultured in phenol-red free media (10% FBS, 1 mM sodium pyruvate, 100 units penicillin, 0.1 mg mL^–1 streptomycin, and 2 mM L-glutamine) and seeded at a density of 10,000 cells per well (100 μL, 96-well plates). […] Treated cells were then incubated at 37 °C and CO2 (5%) for 24 h before the LDH assay was performed as per the manufacturer’s instructions. Spontaneous control (water) and maximum control (lysis buffer) were used in accordance with the kit guide. Absorbance was measured at 490 and 680 nm using the SpectraMaxM2e spectrophotometer. The measured LDH activity was used to calculate %cytotoxicity using the following equation (eq ): %cytotoxicity=(compoundtreatedLDHactivity−spontaneousLDHactivity)/(maximumLDHactivity−spontaneousLDHactivity)×100 1

[5] = Mouse plasma protein binding; assay type: in vitro ADME; conditions: read-out: mouse PPB (% free)
Method: (§2) Hepatocyte isolation, hepatocyte incubations for metabolic stability, plasma protein binding (PPB) experiments, and LC/MS sample analysis were carried out as previously described in Brandon et al. and MacLeod et al.

[6] = Mouse hepatocyte metabolic stability; assay type: in vitro ADME; parameters: k (elimination constant): unit not given here; conditions: mouse hepatocytes; for Heps category: metabolism category; for Cl (clearance): limits of quantitation 0.5 and 50; for half-life: read-out: T1/2 (half-life)
Method: as §2
XLfit (IDBS, UK) was used to calculate the exponential decay and the rate constant (k) from the ratio of the peak area of the test compound to the internal standard at each time point. […] Verapamil, 7-ethoxycoumarin, 7-hydroxycoumarin, and phthalazine were used as positive controls to confirm acceptable assay performance. […] Values were transferred to RStudio v1.3.1093 (Posit, Boston, MA, USA) for generation of scatter plots and heatmaps using the ggplot2 package (Wickham 2016).

17β-HSD10 [7] = molecular target: T1, 17β-HSD10; test: Acetoacetyl-CoA and NADH enzyme kinetics (mode of inhibition); assay type: biochemical; conditions: for mode of inhibition with respect to acetoacetyl-CoA (AcAc): AcAc diluted from 1000 μM, 100 μM NADH; for mode of inhibition with respect to NADH: AcAc in excess at 800 μM, NADH diluted from 150 μM
Method: To determine the mode of inhibition, a matrix titration was used to calculate the kinetic parameters for acetoacetyl-CoA and NADH and the effect of 17β-HSD10 concentration upon reaction rate. Previously determined conditions as described in Aitken et al. were used. Data collected from the experiment were analyzed by plotting reaction progress curves to calculate the initial velocities, Vmax, and Km values using the Michaelis–Menten equation (XLFit, ID Business Solutions). Hanes Woolf plots were used to determine the mechanism of inhibition. Two compounds, ESC1002033 and ESC1002082, representative of the two unique clusters, were investigated for their mechanism of action against the substrates, NADH (Supplementary C, Figure S2) and AcetoAcetyl-CoA (AcAc) (Supplementary C, Figure S3). Both ESC1002033 and ESC1002082 inhibitors were tested as a 12-point serial dilution series with a maximal concentration of 2.5 μM. […] When investigating the effect of AcAc, it was diluted from 1000 μM with an excess of 100 μM NADH. Both inhibitors appear to have a similar mechanism of action. For NADH, with increasing concentration of the inhibitor, there is a decrease in Vmax (Figure SC1B) with no change in Km (Figure SC1C), which is characteristic of non-competitive (mixed) inhibition. This is also reflected by the convergence of the data to the left of the y axis on the Lineweaver–Burke plot (Figure SC1D). In contrast, with AcAc present, there was an increase in Kmapp with increasing inhibitor concentrations (Figure SC2C), which is characteristic of competitive inhibition. […] However, the data in Figure SC2D have been fitted for substrate inhibition (Y = V max × X/(Km + X × (1 + X/K i))), and the diagnostic Lineweaver–Burke plot also supports the conclusion that inhibition is competitive with AcAc (Figure SC2D).

[8] = test system: HEK293 cells overexpressing 17β-HSD10; test: Alamar Blue cell viability assay; assay type: cell-based, human; conditions: 50 μM compound, 24 h, n = 3 ± SD
Method: as §1

[9] = Table 4, 17β-HSD10 overexpressing HEK293 cells, CHANA fluorescence assay
[10] = Table 5, HEK293 17β-HSD10 cells, CHANA assay
[11] = Table 2, chemically modified cluster hit compounds, read-out: 17β-HSD10 pIC50 (converted)
[12] = Table 5, read-out: mean 17β-HSD10 pIC50 (converted)
[13] = Table 3, chemically modified singleton hit compound series, read-out: 17β-HSD10 pIC50 (converted)

SMILES	EC50 (17β-HSD10 [1]; [9]) [nM]	EC50 (17β-HSD10 [1]; [10]) [nM]	viability at 24 h, 50 μM [2] [%]	IC50 (17β-HSD10 [3]; [11]) [nM]	IC50 (17β-HSD10 [3]; [12]) [nM]	LDH % toxicity (50 μM dose) [4] [%]	k (elimination constant) [6]	Heps category [6]	Cl (clearance) [6] [mL/min/g liver]	half-life [6] [min]	Alamar Blue % viability (50 μM dose) [8] [%]	IC50 (17β-HSD10 [3]; [13]) [nM]	other results
Cc1ccc(C(=O)N(CC(C)C)c2cccc(N(C)Cc3c[nH]cn3)c2)c(F)c1 [ESC1002575]	367	367	92.57 ± 0.47	269	269	4.78 ± 0.02	0.012	mod	5.8	57.2			fraction unbound [5]: 0.076
CC(C)CN(C(=O)c1ccccc1F)c1cccc(N(C)Cc2cnc[nH]2)c1 [ESC1002033]				200	200		0.013	mod	6.2	53.8			mode of inhibition with respect to acetoacetyl-CoA (AcAc) (17β-HSD10 [7]): competitively; mode of inhibition with respect to NADH (17β-HSD10 [7]): non-competitively
O=C(c1sccc1Cl)N1CCCC1c1ccccc1-c1ccc(F)c(O)c1 (stereo not drawn) [ESC1002838]	232					5.58 ± 0.03					94.28 ± 1.31	51.3	
Cc1nc[nH]c1CN(C)c1cccc(N(CC(C)C)C(=O)c2ccccc2F)c1 [ESC1002204]	1360	1360	96.7 ± 3.61	398	398	5.05 ± 0.01	0.11	high	>50	6.2			
Cc1ncc(CN(C)c2cccc(N(CC(C)C)C(=O)c3ccccc3F)c2)[nH]1 [ESC1002203]	2460					6.64 ± 0.03					82.98 ± 1.25		fold less potent than ESC1002033 (17β-HSD10 [3]; relative to ESC1002033): approximately 3 fold
Cc1ccsc1C(=O)N(CC(C)C)c1cccc(N(C)Cc2c[nH]cn2)c1 [ESC1002597]	511	511				4.98 ± 0.04	0.02	Mod	7.2		78.78 ± 1.72		mean 17β-HSD10 pIC50 (17β-HSD10 [3]; Table 5): 6.4; T1/2 (half-life) [6]: 46.2 min
COc1ccc(-c2ccccc2C2CCCN2C(=O)c2sccc2C)cn1 (stereo not drawn) [ESC1002082]													LipE (17β-HSD10 [3]): 1.45; LipE (17β-HSD10 [3]; Table 1, lipophilic efficiency): 1.45; mode of inhibition with respect to acetoacetyl-CoA (AcAc) (17β-HSD10 [7]): competitively; mode of inhibition with respect to NADH (17β-HSD10 [7]): non-competitively
COc1cccc(-c2ccccc2C2CCCN2C(=O)c2sccc2C)c1 (stereo not drawn) [ESC1002421]	671					5.16 ± 0.01					102.63 ± 1.32	186	
COc1cccc(-c2ccccc2C2CCCN2C(=O)c2[nH]ncc2Cl)c1 (stereo not drawn) [ESC1002757]	266	266	89.52 ± 0.84		105	5.03 ± 0.02	0.13	high	>50	5.3		115	LipE (17β-HSD10 [3]): 2.76
COc1ccc(-c2ccccc2[C@H]2CCCN2C(=O)c2sccc2C)cn1 [ESC1002162]	1130					6.84 ± 0.02					78.79 ± 0.91		17β-HSD10 pIC50 (17β-HSD10 [3]; Supplementary B, Table S1 and text, enantiomers): 6.31
O=C(c1sccc1Cl)N1CCCC1c1ccccc1-c1cccc(O)c1 (stereo not drawn) [ESC1002755]	28	28	85.3 ± 2.01		18.6	5.47 ± 0.04	0.22	high	>50	3.1		20	fold improvement in activity/potency over hit ESC1002082 (17β-HSD10 [3]; relative to ESC1002082): 40 fold
COc1ccc(C(=O)N(CC(C)C)c2cccc(N(C)Cc3cnc[nH]3)c2)cc1 [ESC1002182]	1670		85.4 ± 3.61	331		4.73 ± 0.01							
